Patent US20090130261A1, “Vit-A-Cup” (priority 2007, published 2009)
Where two headings read alike, the source gives them in different places.

What was measured:
[1] = compatibility and stability of additives dissolved or suspended in water-based polyacrylic acid carbomer matrixes; conditions: for compatibility in carrier matrix: short term
Description: (§1) The differing chemical characteristics of the various additives require each ingredient or blend of ingredients to be dissolved or suspended in a customized matrix in order to ensure desired delivery of the additive in question. […] A number of characteristics were studied for each desired additive compound or complex, such as the degree of chemical affinity to water, solubility rates in various solvents and at various levels of pH, and degradation rates upon exposure to various environmental factors including oxygen levels in ambient air and temperature, as well as individual tolerance to extreme shifts in pH levels.

[2] = solubility characteristics of additives
Description: as §1
This is accomplished, for example, in a suspension of 3% Xanthan gum and 0.5% Noveon Carbopol Carbomer in distilled water with 20% Ethanol (to aid in speeding the drying time). This solution is then sprayed on to the interior of the cup and allowed to dry. […] Again, this would be delivered in a flavor-masked suspension of 3% Xanthan gum and 0.5% Noveon Carbopol Carbomer.

[3] = dissolved or suspended in water-based polyacrylic acid carbomer matrixes
[4] = require suspension prior to administration to the cup

Molecule | stability in carrier matrix [1] | compatibility in carrier matrix [1, 3] | other results
N=C(N)NCCC[C@H](N)C(=O)O [Arginine] | stable | compatible | –
N[C@@H](CC(=O)O)C(=O)O [Aspartic acid] | stable | compatible | –
N[C@@H](Cc1c[nH]c2ccccc12)C(=O)O [Tryptophan] | stable | compatible | –
CC(C)C[C@H](N)C(=O)O [Leucine] | stable | compatible | –
C[C@H](N)C(=O)O [Alanine] | stable | compatible | –
N[C@@H](Cc1ccc(O)cc1)C(=O)O [Tyrosine] | stable | compatible | –
NC(=O)CC[C@H](N)C(=O)O [Glutamine] | stable | compatible | –
N[C@@H](Cc1c[nH]cn1)C(=O)O [Histidine] | stable | compatible | –
[Cu] [Copper] | – | – | solubility [2]: Insoluble
Vitamin K | – | – | solubility [2]: Insoluble
[Zn] [Zinc] | – | – | solubility [2, 4]: Insoluble
Vitamin E | – | – | solubility [2]: Insoluble
O=C(O)[C@@H]1CCCN1 [Proline] | stable | compatible | –
[Mn+2] [Manganese] | – | – | solubility [2, 4]: Insoluble
[Cr] [Chromium] | – | – | solubility [2, 4]: Insoluble
Nc1ccc(C(=O)O)cc1 [PABA, Para-Aminobenzoic Acid] | – | – | solubility [2, 4]: Insoluble
C[C@@H](O)[C@H](N)C(=O)O [Threonine] | stable | compatible | –
N[C@@H](CCC(=O)O)C(=O)O [Glutamic acid] | – | compatible | stability in carrier matrix ([1]; dissolved or suspended in water-based polyacrylic acid carbomer matrixes, longer term): stable
CC(C)(CO)[C@@H](O)C(=O)NCCC(=O)O [Vitamin B5, Pantothenic Acid] | stable | compatible | –
[Mg+2] [Magnesium] | – | – | solubility [2, 4]: Insoluble
C[N+](C)(C)CCO [Choline] | stable | – | –
CSCC[C@H](N)C(=O)O [Methionine] | stable | compatible | –

Molecule | stability in carrier matrix [1] | compatibility in carrier matrix [1, 3] | other results
Cc1cc2nc3c(=O)[nH]c(=O)nc-3n(C[C@H](O)[C@H](O)[C@H](O)CO)c2cc1C [Vitamin B2, Riboflavin] | stable | compatible | –
Cyanocobalamin [Vitamin B12] | stable | compatible | –
Cc1ncc(C[n+]2csc(CCO)c2C)c(N)n1 [Vitamin B1, Thiamine] | stable | compatible | –
[Mo] [Molybdenum] | – | – | solubility [2]: Insoluble
Vitamin D | – | – | solubility [2, 4]: Insoluble
CC[C@H](C)[C@H](N)C(=O)O [Isoleucine] | stable | compatible | –
Nc1nc2ncc(CNc3ccc(C(=O)N[C@@H](CCC(=O)O)C(=O)O)cc3)nc2c(=O)[nH]1 [Folic Acid] | – | – | solubility [2]: Insoluble
N[C@@H](Cc1ccccc1)C(=O)O [Phenylalanine] | stable | compatible | –
NC(=O)C[C@H](N)C(=O)O [Asparagine] | stable | compatible | –
CC(C)[C@H](N)C(=O)O [Valine] | stable | compatible | –
N[C@@H](CS)C(=O)O [Cysteine] | stable | compatible | –
NCC(=O)O [Glycine] | stable | compatible | –
O=C(O)CCCC[C@@H]1SC[C@@H]2NC(=O)N[C@@H]21 [Biotin] | stable | compatible | –
[K+] [Potassium] | – | – | solubility [2]: Insoluble
Iodine | – | – | solubility [2, 4]: Insoluble
[Se] [Selenium] | – | – | solubility [2, 4]: Insoluble
COC1=C(OC)C(=O)C(C/C=C(\C)CC/C=C(\C)CC/C=C(\C)CC/C=C(\C)CC/C=C(\C)CC/C=C(\C)CC/C=C(\C)CC/C=C(\C)CC/C=C(\C)CCC=C(C)C)=C(C)C1=O [Coenzyme Q10] | – | – | solubility [2, 4]: Insoluble
Cc1ncc(CO)c(CO)c1O [Vitamin B6, Pyridoxine] | stable | compatible | –
NCCCC[C@H](N)C(=O)O [Lysine] | stable | compatible | –
CC1=C(/C=C/C(C)=C/C=C/C(C)=C/C=C/C=C(C)/C=C/C=C(C)/C=C/C2=C(C)CCCC2(C)C)C(C)(C)CCC1 [Vitamin A, Beta-Carotene] | stable | compatible | –
N[C@@H](CO)C(=O)O [Serine] | stable | compatible | –
